One assay addresses PRMT1 (Homo sapiens, UniProt Q99873). As to the kind of experiment: PRMT1 enzyme activity test. To be noted: 0.5 nM PRMT1, 3H-SAM, peptide. The format is biochemical. The method, then: PRMT1 enzyme activity test were performed in a buffer prepared on the same day 5 consisting of 10 mMTirs-HCl (pH=8.0), 0.01% Tween-20 and 1 mM DTT. The compounds were prepared to the highest inhibitor concentration ultimately required in the 100× reaction with 100% DMSO and then transferred to one well of a 384-well Echo plate (Echo-eligible 384-well polypropylene microplates 2.0, transparent, flat-bottomed) and sequentially diluted in the next well with a 3-fold dilution of 100% DMSO, and so on, with a total of 10 concentrations based on Precision. 100% DMSO was added to two empty wells to serve as control well without compound and control well without enzyme in the same 384-well Echo plate. 250 nL of compound was transferred from each well of the 384-well Echo plate to a 384-well assay plate (384-well polypropylene storage microplate) via the Echo 550 liquid processor. For wells with compounds and control well without compound, a mixture (15 uL) containing PRMT1 enzyme was added to the 384-well assay plate. For control wells without enzyme, the mixture containing the assay buffer (15 uL) was added instead. The compounds were allowed to incubate with PRMT1 for 15 minutes at room temperature, and then a mixture containing ^3H-SAM and peptide (10 uL) was added to start the reaction (final volume=25 uL). The final concentrations of the components were as follows: 0.5 nM for PRMT1, 0.25 uM for ^3H-SAM, 0.1 uM for the peptide, and 1% DMSO. After 120 min of incubation, the assay was terminated by the addition of non-radiolabeled SAM (5 uL) to a final concentration of 125 uM, which diluted 3H-SAM to a level at which its incorporation into the peptide substrate was no longer detected. 25 μL of the reaction solution from the 384-well assay plate was then transferred to a 384-well detection plate (Streptavidin FlashPlate HTS PLUS, high volume, 384 wells). The biotinylated peptide was allowed to bind to the surface of the antibiotic protein streptavidin for at least 60 minutes at room temperature. The Flashplate was then washed three times with 0.1% Tween-20 in a BioTek plate washer. Plates were read on a microplate counter (MicroBeta2) to measure the amount of ^3H-labeled peptide bound to the surface of the detection plate, measured in counts per minute (cpm).
The raw data were copied from the Reader and the inhibition values were calculated in Excel by Equation (1), Equation (1): Inh %=(CPMmax−CPMcmpd)/(CPMmax−CPMmin)*100, wherein the Max signal was obtained from the enzyme-substrate interaction and the Min signal was obtained from the substrate. IC50 values were obtained by fitting the data through equation (2) using XLFit add-in for Excel version […]. Equation (2): Y=Bottom+(Top-Bottom)/(1+((IC50/X)[…])), wherein, Y represents inhibition percentage and X represents compound concentration.

The test system of another assay is Toledo cells. The assay can be described thus: Toledo cell proliferation inhibition assay. The format is cell-based. The settings on record: Homo sapiens, Toledo, 144 h; six-day assay, CellTiter-Glo. The method, then:
• A. Purpose: to determine the effects of compounds on Toledo cells through a six-day cell proliferation assay. • B. Reagents and materials: • 1. Cell culture medium: RPMI 1640+10% FBS • 2. 384-well cell culture plate (Corning, item #3764) • 3. 0.4% Taipan Blue Staining Solution (Thermo Fisher, item #T10282) • 4. cell counting plate (Thermo Fisher, item #C10228) • 5. 50 ml reagent reservoir (Corning, item #4870) • 6. 50 ml conical sterile polypropylene centrifuge tube (Thermo Fisher, item #339653) • 7. Automatic cell counter (Thermo Fisher, item #AMQAX1000) • 8. CellTiter-Glo Luminescent Cell Viability Detection Reagent (Promega, item #G7572) • 9. SpectraMax i3x Multi-Mode Enzyme Labeling Instrument (Megaman Molecular Instruments, item #5024062) • C. Experimental method • 1. Resuspending the cells with a pipette. • 2. 0.4% Taipan blue staining solution and Toledo cells were mixed in equal proportion, and the cells were counted using an automatic cell counter. • 3. Toledo cells were diluted to a final concentration of 2000 cells per well and transferred to a 50 ml reagent reservoir. • 4. Diluted Toledo cells were added to a 384-well cell culture plate, 40 ul per well. • 5. The cells were shortly centrifuged and settled. • 6. The cells were incubated in a 37° C., 5% CO2 cell culture incubator. • 7. The substrate in the CellTiter-Glo Luminescent Cell Viability Detection Reagent was mixed with the solution. • 8. After six days, the 384-well cell culture plate was taken from the incubator and 20 ul of configured CellTiter-Glo reagent was added to each well. • 9. 384-well cell culture platewasmixed in an orbital shaker for 30 minutes. • 10. Signal of luminescence was detected with a SpectraMax i3x multi-mode enzyme labeling instrument.

Chain of PRMT1 (Q99873 whole entry): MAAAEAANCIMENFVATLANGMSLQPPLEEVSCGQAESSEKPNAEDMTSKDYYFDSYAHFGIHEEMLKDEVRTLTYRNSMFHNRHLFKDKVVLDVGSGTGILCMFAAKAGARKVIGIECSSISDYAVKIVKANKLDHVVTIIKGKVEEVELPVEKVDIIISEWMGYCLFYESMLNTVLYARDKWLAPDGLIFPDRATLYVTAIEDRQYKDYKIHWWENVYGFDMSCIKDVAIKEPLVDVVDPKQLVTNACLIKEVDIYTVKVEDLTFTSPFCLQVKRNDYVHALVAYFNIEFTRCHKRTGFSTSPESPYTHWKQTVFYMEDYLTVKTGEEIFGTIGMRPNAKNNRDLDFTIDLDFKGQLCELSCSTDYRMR

A word on the IC50: it is the concentration that gives 50% inhibition. Read a high IC50 as lower potency. Turning to `CNCCN(C)Cc1ncccc1N1CC2CC(C1)c1ccccc12` [P119], the IC50 was ≥ 500 nM against PRMT1 and 1000 to 5000 nM with Toledo cells.
Consider `CNCCN(C)Cc1ncccc1C1CCN(CC(F)(F)F)CC1` [P120], for which the IC50 on PRMT1 is < 50 nM; in the assay on Toledo cells, 1000 to 5000 nM.
For `CCOCC1(COCC)CCN(c2c(Br)cccc2CN(C)CCNC)CC1` [P123] the same measures were < 50 nM and 1000 to 5000 nM.
As for `CNCCN(C)Cc1ncccc1N1CCC(N2CCN(C(C)C)CC2)CC1` [P124], the IC50 against PRMT1 was ≥ 500 nM; in the assay with Toledo cells it was 1000 to 5000 nM.
As to `CNCCN(C)Cc1ncccc1C1CCCCC1` [P125], the IC50 is < 50 nM at PRMT1 and < 1000 nM in the assay on Toledo cells.
For the compound `CNCCN(C)Cc1ncccc1N1CCC(N2CCCCC2)CC1` [P126], the IC50 on PRMT1 was < 50 nM; in the assay on Toledo cells it was 1000 to 5000 nM.
Regarding `CNCCN(C)Cc1ncccc1N1CCc2ccccc2C1` [P127], the values for the IC50 against PRMT1 and in the assay with Toledo cells were < 50 nM and 1000 to 5000 nM, respectively.
Regarding `CNCCN(C)Cc1ncccc1N1CCCc2ccccc21` [P128], the IC50 was ≥ 500 nM against PRMT1 and ≥ 5000 nM in the assay on Toledo cells.
On to `CNCCN(C)Cc1ccc(F)cc1C1CCc2nc3ccccc3nc2CC1` [P132], for which the concentration for half-maximal inhibition (IC50) against PRMT1 was < 50 nM; in the assay with Toledo cells it was < 1000 nM.
`CNCCN(C)Cc1ncccc1C1CCN(c2ccc(-c3ccncc3)cc2)CC1` [P133]: the IC50 on PRMT1 was < 50 nM; with Toledo cells, < 1000 nM.
With `CCOCc1cccc(N2CCC(c3cccnc3CN(C)CCNC)CC2)c1` [P134], the values for the IC50 against PRMT1 and in the assay on Toledo cells were < 50 nM and 1000 to 5000 nM, respectively.
For `CNCCN(C)Cc1ccc(-c2cn[nH]c2)cc1C1CCc2cc(F)c(F)cc2CC1` [P135], the IC50 against PRMT1 is < 50 nM; in the assay on Toledo cells it was < 1000 nM.
Consider `CNCCN(C)Cc1ccc(CC(=O)NC)cc1C1CCN(c2cccc(C)c2)CC1` [P140], for which the results for the IC50 against PRMT1 and with Toledo cells were < 50 nM and < 1000 nM, respectively.
`CNCCN(C)Cc1ncccc1N1CCC(Oc2cc(C)ccc2Cl)CC1` [P144]: the values for the half-maximal inhibitory concentration (IC50) on PRMT1 and in the assay with Toledo cells were < 50 nM and < 1000 nM, respectively.
Take `CNCCN(C)Cc1ncccc1N1CCCCCC1` [P145]: the concentration for half-maximal inhibition (IC50) on PRMT1 was < 50 nM; in the assay with Toledo cells it was 1000 to 5000 nM.
Turning to `CNCCN(C)Cc1ccc2[nH]nc(C)c2c1C1CCc2cc(F)c(F)cc2CC1` [P146, N1-((4-(2,3-difluoro-6,7,8,9-tetrahydro-5H-benzo[7]cyclopenten-7-yl)-3-methyl-1H-indazol-5-yl)methyl)-N1,N2-dimethylethane-1,2-diamine], the IC50 was < 50 nM against PRMT1 and < 1000 nM in the assay with Toledo cells.
On the same counts, the results for `CNCCN(C)Cc1ccc(F)cc1C1CCN(c2nc(C)cc(N3CCCC3)n2)CC1` [P151] are < 50 nM and 1000 to 5000 nM.
With `CNCCN(C)Cc1ccc2c(c1C1CCN(c3cccc(C)c3)CC1)CCC(=O)N2` [P155], the values for the IC50 against PRMT1 and with Toledo cells were < 50 nM and < 1000 nM, respectively.
`CNCCN(C)Cc1cc(C(=O)NC)ccc1C1CCN(c2cccc(C)c2)CC1` [P159]: the IC50 against PRMT1 was ≥ 500 nM; with Toledo cells, ≥ 5000 nM.
In the case of `CNCCN(C)Cc1ccc(C(=O)NC)cc1C1CCN(c2cccc(C)c2)CC1` [P160], the figures for the IC50 on PRMT1 and in the assay on Toledo cells were < 50 nM and < 1000 nM, respectively.
Take `CNCCN(C)Cc1ncccc1N1CCN(C(C)C)CC1` [P161]: the IC50 was < 50 nM at PRMT1 and < 1000 nM with Toledo cells.
Regarding `CNCCN(C)Cc1ccc(C)nc1C1CCN(c2cccc(NC)c2)CC1` [P162], the IC50 on PRMT1 was 50 to 500 nM; in the assay on Toledo cells it was < 1000 nM.
On the same counts, the results for `CNCCN(C)Cc1ncccc1C1CCN(c2ccc3c(c2)CCO3)CC1` [P163] are < 50 nM and < 1000 nM.
`CNCCN(C)Cc1ncccc1C1CCN(c2cccc3c2OCC3)CC1` [P164]: the figures for the 50% inhibitory concentration (IC50) at PRMT1 and in the assay on Toledo cells were < 50 nM and 1000 to 5000 nM, respectively.
Consider `CNCCN(C)Cc1ncccc1N1CCC(OCc2ccccc2)CC1` [P166], for which the IC50 was < 50 nM against PRMT1 and < 1000 nM in the assay with Toledo cells.
For `CNCCN(C)Cc1ncccc1C1CCN(c2ccc(OC)cc2)CC1` [P168] the same measures were < 50 nM and 1000 to 5000 nM.
In the case of `CNCCN(C)Cc1ncccc1C1CCN(c2cccc(OC)c2)CC1` [P169], the IC50 against PRMT1 was < 50 nM; in the assay on Toledo cells, < 1000 nM.
With `CNCCN(C)Cc1ccc(F)cc1C1CCN(c2nccc(N3CCCC3)n2)CC1` [P172], the IC50 at PRMT1 is < 50 nM; in the assay with Toledo cells, < 1000 nM.
For `CCOC[C@H]1CC[C@H](c2cccnc2CN(C)CCNC)CC1` [P173] the same measures were < 50 nM and < 1000 nM.
Turning to `CCOC[C@H]1CC[C@@H](c2cccnc2CN(C)CCNC)CC1` [P174], the results for the IC50 against PRMT1 and in the assay with Toledo cells were < 50 nM and 1000 to 5000 nM, respectively.
As for `CNCCN(C)Cc1ccc2[nH]c(C)nc2c1C1CCN(c2cccc(C)c2)CC1` [P176], the results for the IC50 on PRMT1 and in the assay with Toledo cells were < 50 nM and < 1000 nM, respectively.
For the compound `CNCCN(C)Cc1ncccc1N1CCCCC1` [P177], the results for the IC50 on PRMT1 and with Toledo cells were < 50 nM and 1000 to 5000 nM, respectively.
For `CNCCN(C)Cc1ncccc1N1CCC(Oc2ccc(F)cc2)CC1` [P178] the same measures were < 50 nM and < 1000 nM.
With `CNCCN(C)Cc1ccc2c(c1C1CCN(c3cccc(C)c3)CC1)CC(=O)N2` [P180], the IC50 was < 50 nM on PRMT1 and < 1000 nM with Toledo cells.
Regarding `CCOCC1(CC)CCN(c2cccnc2CN(C)CCNC)CC1` [P182], the IC50 on PRMT1 is < 50 nM; in the assay on Toledo cells, < 1000 nM.
Regarding `CNCCN(C)Cc1cc(F)c2[nH]ncc2c1C1CCN(c2cccc(C)c2)CC1` [P183], the IC50 at PRMT1 was < 50 nM; in the assay with Toledo cells, < 1000 nM.
As for `CNCCN(C)Cc1ccc(C)nc1C1CCN(c2ccc(C#N)cc2)CC1` [P188], the IC50 was < 50 nM against PRMT1 and 1000 to 5000 nM in the assay with Toledo cells.
For `CNCCN(C)Cc1ccc2[nH]cnc2c1C1CCN(c2cccc(C)c2)CC1` [P189] the same measures were < 50 nM and < 1000 nM.
`CNCCN(C)Cc1ccc2[nH]ncc2c1C1CCN(c2cccc(C)c2)CC1` [P190, N^1,N^2-dimethyl-N^1-((4-(1-(m-tolyl)piperidin-4-yl)-1H-indazol-5-yl)methyl)ethane-1,2-dia mine]: the IC50 at PRMT1 was < 50 nM; in the assay with Toledo cells, < 1000 nM.
In the case of `CNCCN(C)Cc1ncccc1C1CCN(c2ccc(C(=O)N(C)C)cc2)CC1` [P192], the IC50 was < 50 nM against PRMT1 and ≥ 5000 nM in the assay on Toledo cells.
Turning to `CNCCN(C)Cc1ncccc1C1CCN(c2ccnc(C)c2)CC1` [P193], the values for the IC50 against PRMT1 and with Toledo cells were < 50 nM and 1000 to 5000 nM, respectively.
Regarding `CNCCN(C)Cc1ncccc1N1CCC(Nc2ccccc2)CC1` [P194], the figures for the IC50 against PRMT1 and in the assay on Toledo cells were < 50 nM and 1000 to 5000 nM, respectively.
In the case of `CNCCN(C)Cc1ccc(CC(N)=O)cc1C1CCN(c2cccc(C)c2)CC1` [P195], the IC50 on PRMT1 is < 50 nM; in the assay with Toledo cells it was < 1000 nM.
In the case of `CCOCC1(COCC)CCC(c2cc(F)cnc2CN(C)CCNC)CC1` [P196], the IC50 at PRMT1 is < 50 nM; with Toledo cells, < 1000 nM.
In the case of `CNCCN(C)Cc1ncccc1N1CCCC1` [P197], the values for the IC50 on PRMT1 and with Toledo cells were ≥ 500 nM and ≥ 5000 nM, respectively.

The values above are taken from patent US20240307409A1, “ARGININE METHYLTRANSFERASE INHIBITOR AND USE THEREOF” (Cytosinlab Therapeutics Co., Ltd., priority 2021, published 2024).
